The source of these data is US6239126A, “Arylpiperidine and aryl-1,2,5,6-tetra-hydropyridine urea derivatives” (American Home Products Corporation, priority 1999, dated 2001).

For test [1], the target named is T1, human 5HT1A receptor (Homo sapiens, UniProt P08908).
T1 construct: expressed in transfected cells; host or cells: CHO cells, stably transfected
T1 sequence (P08908 1-422): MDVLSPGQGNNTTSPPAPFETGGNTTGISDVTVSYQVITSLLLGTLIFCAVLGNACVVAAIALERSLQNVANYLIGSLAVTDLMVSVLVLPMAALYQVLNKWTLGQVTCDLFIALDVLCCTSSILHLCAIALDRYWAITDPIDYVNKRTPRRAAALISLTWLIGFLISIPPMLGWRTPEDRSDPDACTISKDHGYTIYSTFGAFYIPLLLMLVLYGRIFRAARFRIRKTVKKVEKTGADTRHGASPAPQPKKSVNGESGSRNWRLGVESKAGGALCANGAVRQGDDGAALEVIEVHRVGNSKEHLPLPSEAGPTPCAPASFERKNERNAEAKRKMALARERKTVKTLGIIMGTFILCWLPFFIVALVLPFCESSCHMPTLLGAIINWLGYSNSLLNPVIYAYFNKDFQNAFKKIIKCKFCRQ
Briefly: 5-HT1A Receptor Intrinsic Activity Assay, agonist activity (cAMP in forskolin-treated CHO cells stably transfected with the human 5-HT1A receptor). In kind it is cell-based. The following applies: read-out: cAMP Emax. How it is done: (§1) The intrinsic activity of compounds of the present invention was established by testing the claimed compounds ability to reverse the stimulation of cyclic adenosinemonophosphate (cAMP) in CHO cells stably transfected with the human 5-HT1A receptor.
(§2) Stably transfected CHO cells were grown in DMEM containing 10% heat inactivated FBS and non-essential amino acids. The cells are plated at a density of […] cells per well in a 24 well plate and incubated for 2 days in a CO2 incubator. On the second day, the media is replaced with 0.5 mL treatment buffer (DMEM +25 mM HEPES, 5 mM theophylline, 10 μM pargyline) and incubated for 10 minutes at 37° C. Wells are treated with forskolin (1 μM final concentration) followed immediately by the test compound (0.1 and 1 μM for initial screen) and incubated for an additional 10 minutes at 37° C. The reaction is terminated by removal of the media and addition of 0.5 mL ice cold assay buffer (supplied in the RIA kit). Plates are stored at -20° C. prior to assessment of cAMP formation by RIA. EC50 values are determined for the active test compounds. Compounds shown to have no agonist activities (Emax=0%) are further analyzed for their ability to reverse agonist induced activity. In separate experiments, 6 concentrations of antagonist are preincubated for 20 minutes prior to the addition of agonist and forskolin. Cells are harvested as described above. The cAMP kit is supplied by Amershan and the RIA is performed as per kit instructions, and calculations of IC50 performed by GraphPad Prism.

Test [2] concerns the target T1, human 5HT1A receptor. Briefly: 5-HT1A Receptor Binding Assay (displacement of [^3 H] 8-OH-DPAT binding in CHO cells stably transfected with human 5HT1A receptor). As for the experimental part:
High affinity for the serotonin 5-HT1A receptor was established by testing a compound's ability to displace [^3 H] 8-OH-DPAT binding in CHO cells stably transfected with human 5HT1A receptor. Stably transfected CHO cells are grown in DMEM containing 10% heat inactivated FBS and non-essential amino acids. Cells are scraped off the plate, transferred to centrifuge tubes, and washed twice by centrifugation (2000 rpm for 10 min., 4° C.) in buffer (50 mM Tris pH 7.5). The resulting pellets are aliquoted and placed at -80° C. On the day of assay, the cells are thawed on ice and resuspended in buffer. The binding assay is performed in a 96 well microtiter plate in a total volume of 250 μL. Non-specific binding is determined in the presence of […] 5-HT, final ligand concentration is 1.5 nM. Following a 30 minute incubation at room temperature, the reaction is terminated by the addition of ice cold buffer and rapid filtration through a GF/B filter presoaked for 30 minutes in 0.5% PEI. Compounds are initially tested in a single point assay to determine percent inhibition at […], and Ki values are determined for the active compounds.

For test [3], the target named is T1, human 5HT1A receptor. The test is described as follows: 5-HT1A Receptor Intrinsic Activity Assay, ability to reverse agonist induced activity (cAMP, CHO cells stably transfected with the human 5-HT1A receptor). In kind it is cell-based. To be noted: reversal of agonist induced activity; 6 concentrations of antagonist preincubated 20 minutes prior to agonist and forskolin. As for the experimental part:
as §1
as §2, with “The cAMP kit is supplied by Amershan and the RIA is performed as per kit instructions, and calculations of IC50 performed by GraphPad Prism.” left out

Where [4] appears, read: agonist activity, forskolin 1 μM, CHO cells, 10 minutes at 37° C.
[5] abbreviates: [^3 H] 8-OH-DPAT 1.5 nM, CHO cells, 30 minute incubation at room temperature, read-out: 5-HT1A binding Ki.

Read-outs that look alike come from different tables or passages of the source.

Broadly, the Emax is the size of the effect at its maximum, as opposed to the concentration needed. One may read the Ki as a measure of affinity in units of concentration, obtained from inhibition or displacement. Take `COc1ccc(F)cc1C1=CCN(C[C@@H](Cc2ccccc2)N(C)C(=O)N2CCOCC2)CC1` [Example 2, Morpholine-4-carboxylic acid {(1R)-1-benzyl-2-[4-(5-fluoro-2-methoxy-phenyl)-1,2,5,6-tetrahydro-4H-pyridin-1-yl]-ethyl}-methyl-amide]: the maximal effect (Emax) in test [1] (CHO) is 0%. This molecule displayed a Ki in test [2] of 26.6 nM.

By IC50 is commonly meant the concentration needed to halve the response being measured. Turning to `COc1ccc(F)cc1C1CCN(C[C@@H](Cc2ccccc2)N(C)C(=O)NC2CCCCC2)CC1` [Example 1, 1-{(1R)-1-Benzyl-2-[4-(5-fluoro-2-methoxyphenyl)-piperidin-1-yl]-ethly}-1-3-cyclohexyl-1-methyl-urea], in test [1] (setting [4]), the Emax was 0%. Besides, the 50% inhibitory concentration (IC50) in test [3] stood at 46.9 nM. The inhibitory constant (Ki) in test [2] (setting [5]) was 3.5 nM.

Regarding `COc1ccc(F)cc1C1=CCN(C[C@@H](Cc2ccccc2)N(C)C(=O)NC2CCCCC2)CC1` [Example 3, 1-{(1R)-1-Benzyl-2-[4-(5-fluoro-2-methoxy-phenyl)-1,2,5,6-tetrahydro-4H-pyridin-1-yl]-ethyl-}-3-cyclohexyl-1-methyl-urea], the Emax in test [1] (setting [4]) was 0%. The IC50 in test [3] worked out at 12.6 nM. Besides, the inhibitory constant (Ki) in test [2] (setting [5]) stood at 3.5 nM.
